Consider 3 compounds from patent publication US20030017568A1, “Smooth muscle myosin phosphatase associated kinase” (priority 2001, published 2003).

The subject of one assay is ZIP-like-kinase. The experiment in a line: ZIP-like-kinase activity and phosphorylation in treated rabbit bladder smooth muscle (immunoprecipitates). It is filed as cell-based.
Assay [1] has as its system ZIP-like-kinase (SMPP-1M associated kinase, MYPT-kinase). The assay can be described thus: In vitro kinase assay against the Thr697 peptide, native ZIP-like-kinase (MYPT-kinase) compared with ROK. It counts as biochemical, cow. The settings on record: levels needed versus ROK. The procedure: Kinase and phosphatase assays. Kinase assays included 10 μL of enzyme diluted in 25 mM Hepes, pH 7.4, 1 mM DTT, and 100 μM Thr^697 peptide. Reactions were started with addition of 20 μL Mg^2+ ATP (5 mM MgCl2 and 0.1 mM ATP (5000 cpm/nmol) and carried out at 25° C. Reactions were terminated after 20 min with the addition of 100 μL of 20 mM H3PO4. Aliquots (100 μL) of the reaction mixture were spotted on to P81 paper and washed four times with 20 mM H3PO4. The P81 paper was placed into 1.5 mL Eppendorf tubes and ^32P incorporation was determined by scintillation counting. Phosphatase assays were carried out as described (Shirazi et al, J. Biol. Chem. 269:31598-31606 (1994)).
Purification of the SMPP-1M associated kinase. The SMPP-1M associated kinase was isolated from cow bladders following initial steps outlined for purification of SMPP-1M from pig bladder (Shirazi et al, J. Biol. Chem. 269:31598-31606 (1994)). Following extraction of the myofibrillar pellet, the extract was diluted with 2 volumes of buffer C (20 mM Tris, pH 7.5, 25 mM MgCl2, and 1 mM DTT with protease inhibitors), clarified by centrifugation (100,000 g, 45 min) and applied to a 5.0×10-cm column of ethylenediamine γ-linked ATP Sepharose equilibrated in buffer C. […] The purity of SMPP-1M kinase was assessed by SDS-PAGE and silver staining.

The test system of another assay is ROK. To be noted: hypertensive mice; cited from earlier work.
Another assay has as its system MYPT1. The assay can be described thus: MYPT1 phosphorylation in 32P-labeled intact smooth muscle (rabbit bladder). It counts as cell-based. The settings on record: carbachol stimulation.

For `COC[C@@H]([C@H](O)[C@H](O)C(=O)NCC[C@H](C)c1nc(/C=C/C[C@@H]2O[C@]3(C[C@@H](O)[C@@H]2C)O[C@H]([C@H](C[C@H](O)[C@H](C)[C@H](O)[C@H](C)/C=C(C)/C(C)=C/C=C/C(C)=C\C#N)OC)[C@H](OP(=O)(O)O)C3(C)C)co1)N(C)C` [calyculin A], in the assay on ZIP-like-kinase (carbachol-treated bladder without calyculin A), the “Reduction of ZIP-like-kinase activation in the absence of calyculin A” value was “about 50%”.

Consider `C[C@@H](N)[C@H]1CC[C@H](C(=O)Nc2ccncc2)CC1` [Y-27632], for which the “Inhibition of native ZIP-like-kinase (MYPT-kinase): levels relative to those for ROK” value in assay [1] is 200 fold. The “Inhibition of ZIP-like-kinase activity” value with ZIP-like-kinase (10 μM, carbachol and calyculin A treated bladder) was “significant inhibition”. For the same compound, the Blood pressure result in the assay with ROK is “decreased blood pressure”.

Consider `C[N+](C)(C)CCOC(N)=O` [carbachol], for which the “ZIP-like-kinase phosphorylation and activation” value in the assay with ZIP-like-kinase was “phosphorylated and activated”. For the same compound, the “MYPT1 phosphorylation state (four phosphopeptides; major site Thr697)” value with MYPT1 is recorded as “increased”.
